Measurements: US20090270413A1, “DI-T-BUTYLPHENYL PIPERAZINES AS CALCIUM CHANNEL BLOCKERS” (priority 2008, published 2009)

How the values were obtained:
Assay type in all cases: cell-based
[1] = molecular target: T1, Cav3.2 (T-type channel alpha-1H) (Homo sapiens, UniProt O95180); assay: T-type calcium channel voltage-clamp assay, Cav3.2; conditions: read-out: Cav 3.2 IC50
T1 construct: expressed in transfected cells; host or cells: HEK 293
Procedure: (§1) The T-type calcium channel blocking activity of the compounds of this invention may be readily determined using the methodology well known in the art described by Xia, et al., Assay and Drug Development Tech., 1 (5), 637-645 (2003).
(§2) In a typical experiment ion channel function from HEK 293 cells expressing the T-type channel alpha-1G, H, or I (CaV 3.1, 3.2, 3.3) is recorded to determine the activity of compounds in blocking the calcium current mediated by the T-type channel alpha-1G, H, or I (CaV 3.1, 3.2, 3.3). In this T-type calcium (Ca^2+) antagonist voltage-clamp assay calcium currents are elicited from the resting state of the human alpha-1G, H, or I (CaV 3.1, 3.2, 3.3) calcium channel as follows. Sequence information for T-type (Low-voltage activated) calcium channels are fully disclosed in e.g., U.S. Pat. No. 5,618,720, U.S. Pat. No. 5,686,241, U.S. Pat. No. 5,710,250,U.S. Pat. No. 5,726,035, U.S. Pat. No. 5,792,846, U.S. Pat. No. 5,846,757, U.S. Pat. No. 5,851,824, U.S. Pat. No. 5,874,236, U.S. Pat. No. 5,876,958, U.S. Pat. No. 6,013,474, U.S. Pat. No. 6,057,114, U.S. Pat. No. 6,096,514, WO 99/28342, and J. Neuroscience, 19 (6):1912-1921 (1999). Cells expressing the t-type channels were grown in H3D5 growth media which is comprised DMEM, 6% bovine calf serum (HYCLONE), 30 micromolar Verapamil, 200 microgram/ml Hygromycin B, 1× Penicillin/Streptomycin. Glass pipettes are pulled to a tip diameter of 1-2 micrometer on a pipette puller. The pipettes are filled with the intracellular solution and a chloridized silver wire is inserted along its length, which is then connected to the headstage of the voltage-clamp amplifier. Trypsinization buffer was 0.05% Trypsin, 0.53 mM EDTA. The extracellular recording solution consists of (mM): 130 mM NaCl, 4 mM KCl, 1 mM MgCl2, 2 mM CaCl2, 10 mM HEPES, 30 Glucose, pH 7.4. The internal solution consists of (mM): 135 mM CsMeSO4, 1 MgCl2, 10 CsCl, 5 EGTA, 10 HEPES, pH 7.4, or 135 mM CsCl, 2 MgCl2, 3 MgATP, 2 Na2ATP, 1 Na2GTP, 5 EGTA, 10 HEPES, pH 7.4. Upon insertion of the pipette tip into the bath, the series resistance is noted (acceptable range is between 1-4 megaohm). The junction potential between the pipette and bath solutions is zeroed on the amplifier. The cell is then patched, the patch broken, and, after compensation for series resistance (>=80%), the voltage protocol is applied while recording the whole cell Ca2+ current response. Voltage protocols: (1) −80 mV holding potential every 20 seconds pulse to −20 mV for 40 msec duration; the effectiveness of the drug in inhibiting the current mediated by the channel is measured directly from measuring the reduction in peak current amplitude initiated by the voltage shift from −80 mV to −20 mV; (2). −100 mV holding potential every 15 seconds pulse to −20 mV for 40 msec duration; the effectiveness of the drug in inhibiting the current mediated by the channel is measured directly from measuring the reduction in peak current amplitude initiated by the shift in potential from −100 mV to […]. The difference in block at the two holding potentials was used to determine the effect of drug at differing levels of inactivation induced by the level of resting state potential of the cells. After obtaining control baseline calcium currents, extracellular solutions containing increasing concentrations of a test compound are washed on. Once steady state inhibition at a given compound concentration is reached, a higher concentration of compound is applied. % inhibition of the peak inward control Ca2+ current during the depolarizing step to −20 mV is plotted as a function of compound concentration.

[2] = molecular target: T2, Cav3.1 (T-type channel alpha-1G) (Homo sapiens, UniProt O43497); assay: T-type calcium channel voltage-clamp assay, Cav3.1; conditions: read-out: Cav 3.1 IC50
T2 construct: expressed in transfected cells; host or cells: HEK 293
Procedure: as §1, §2

Human Cav2.2 channels = molecular target: T3, Human Cav2.2 channels (Homo sapiens, UniProt Q00975); assay: Block of Cav2.2 (N-type) channels expressed in HEK293 cells; conditions: for inhibition at 10 µM / inhibition at 30 µM: HEK293; for inhibition at 10 µM: read-out: Cav 2.2 % Inh @ 10 μM; for inhibition at 30 µM: read-out: Cav 2.2 % Inh @ 30 μM; for IC50: read-out: Cav 2.2 IC50
T3 construct: expressed in transfected cells
Description: Human Cav2.2 channels were stably expressed in HEK293 cells along with alpha2-delta and beta subunits of voltage-gated calcium channels. An inwardly rectifying potassium channel (Kir2.3) was also expressed in these cells to allow more precise control of the cell membrane potential by extracellular potassium concentration. At low bath potassium concentration, the membrane potential is relatively negative, and is depolarized as the bath potassium concentration is raised. In this way, the bath potassium concentration can be used to regulate the voltage-dependent conformations of the channels. Compounds are incubated with cells in the presence of low (4 mM) potassium or elevated (12, 25 or 30 mM) potassium to determine the affinity for compound block of resting (closed) channels at 4 mM potassium or affinity for block of open and inactivated channels at 12, 25 or 30 mM potassium. After the incubation period, Cav2.2 channel opening is triggered by addition of higher concentration of potassium (70 mM final concentration) to further depolarize the cell. The degree of state-dependent block can be estimated from the inhibitory potency of compounds after incubation in different potassium concentrations.
Calcium influx through Cav2.2 channels is determined using a calcium sensitive fluorescent dye in combination with a fluorescent plate reader. Fluorescent changes were measured with either a VIPR (Aurora Instruments) or FLIPR (Molecular Devices) plate reader.
Protocol • 1. Seed cells in Poly-D-Lysine Coated 96 or 384-well plate and keep in a 37° C.-10% CO2 incubator overnight • 2. Remove media, wash cells with 0.2 mL (96-well plate) or 0.05 mL (384-well plate) Dulbecco's Phosphate Buffered Saline (D-PBS) with calcium & magnesium (Invitrogen; 14040) • 3. Add 0.1 mL (96-well plate) or 0.05 mL (384-well plate) of 4 μM fluor-4 (Molecular Probes; F-14202) and 0.02% Pluronic acid (Molecular Probes; P-3000) prepared in D-PBS with calcium & magnesium (Invitrogen; 14040) supplemented with 10 mM Glucose & 10 mM Hepes/NaOH; pH 7.4 • 4. Incubate in the dark at 25° C. for 60-70 min • 5. Remove dye, wash cells with 0.1 mL (96-well plate) or 0.06 mL (384-well plate) of 4, 12, 25, or 30 mM Potassium Pre-polarization Buffer (PPB) • 6. Add 0.1 mL (96-well plate) or 0.03 mL (384-well plate) of 4, 12, 25, 30 mM PPB with or without test compound • 7. Incubate in the dark at 25° C. for 30 min • 8. Read cell plate on VIPR instrument, Excitation=480 nm, Emission=535 nm • 9. With VIPR continuously reading, add 0.1 mL (96-well plate) or 0.03 mL (384-well plate) of Depolarization Buffer (DB), which is 2× the final assay concentration, to the cell plate.
Block of N-type calcium channels is evaluated utilizing the IonWorks HT 384 well automated patch clamp electrophysiology device. This instrument allows synchronous recording from 384 well (48 at a time). A single whole cell recording is made in each well. Whole cell recording is established by perfusion of the internal compartment with amphotericin B.
The voltage protocol is designed to detect use-dependent block. A 2 Hz train of depolarizations (twenty 25 ms steps to +20 mV). The experimental sequence consists of a control train (pre-compound), incubation of cells with compound for 5 minutes, followed by a second train (post-compound). Use dependent block by compounds is estimated by comparing fractional block of the first pulse in the train to block of the 20th pulse.
Parallel patch clamp electrophysiology is performed using IonWorks HT (Molecular Devices Corp) essentially as described by Kiss and colleagues (Kiss et al. 2003; Assay and Drug Development Technologies, 1:127-135). Briefly, a stable HEK 293 cell line (referred to as CBK) expressing the N-type calcium channel subunits (α1B, α2δ, β3a) and an inwardly rectifying potassium channel (Kir2.3) is used to record barium current through the N-type calcium channel. Cells are grown in T75 culture plates to 60-90% confluence before use. […]

T3 sequence (Q00975 whole entry): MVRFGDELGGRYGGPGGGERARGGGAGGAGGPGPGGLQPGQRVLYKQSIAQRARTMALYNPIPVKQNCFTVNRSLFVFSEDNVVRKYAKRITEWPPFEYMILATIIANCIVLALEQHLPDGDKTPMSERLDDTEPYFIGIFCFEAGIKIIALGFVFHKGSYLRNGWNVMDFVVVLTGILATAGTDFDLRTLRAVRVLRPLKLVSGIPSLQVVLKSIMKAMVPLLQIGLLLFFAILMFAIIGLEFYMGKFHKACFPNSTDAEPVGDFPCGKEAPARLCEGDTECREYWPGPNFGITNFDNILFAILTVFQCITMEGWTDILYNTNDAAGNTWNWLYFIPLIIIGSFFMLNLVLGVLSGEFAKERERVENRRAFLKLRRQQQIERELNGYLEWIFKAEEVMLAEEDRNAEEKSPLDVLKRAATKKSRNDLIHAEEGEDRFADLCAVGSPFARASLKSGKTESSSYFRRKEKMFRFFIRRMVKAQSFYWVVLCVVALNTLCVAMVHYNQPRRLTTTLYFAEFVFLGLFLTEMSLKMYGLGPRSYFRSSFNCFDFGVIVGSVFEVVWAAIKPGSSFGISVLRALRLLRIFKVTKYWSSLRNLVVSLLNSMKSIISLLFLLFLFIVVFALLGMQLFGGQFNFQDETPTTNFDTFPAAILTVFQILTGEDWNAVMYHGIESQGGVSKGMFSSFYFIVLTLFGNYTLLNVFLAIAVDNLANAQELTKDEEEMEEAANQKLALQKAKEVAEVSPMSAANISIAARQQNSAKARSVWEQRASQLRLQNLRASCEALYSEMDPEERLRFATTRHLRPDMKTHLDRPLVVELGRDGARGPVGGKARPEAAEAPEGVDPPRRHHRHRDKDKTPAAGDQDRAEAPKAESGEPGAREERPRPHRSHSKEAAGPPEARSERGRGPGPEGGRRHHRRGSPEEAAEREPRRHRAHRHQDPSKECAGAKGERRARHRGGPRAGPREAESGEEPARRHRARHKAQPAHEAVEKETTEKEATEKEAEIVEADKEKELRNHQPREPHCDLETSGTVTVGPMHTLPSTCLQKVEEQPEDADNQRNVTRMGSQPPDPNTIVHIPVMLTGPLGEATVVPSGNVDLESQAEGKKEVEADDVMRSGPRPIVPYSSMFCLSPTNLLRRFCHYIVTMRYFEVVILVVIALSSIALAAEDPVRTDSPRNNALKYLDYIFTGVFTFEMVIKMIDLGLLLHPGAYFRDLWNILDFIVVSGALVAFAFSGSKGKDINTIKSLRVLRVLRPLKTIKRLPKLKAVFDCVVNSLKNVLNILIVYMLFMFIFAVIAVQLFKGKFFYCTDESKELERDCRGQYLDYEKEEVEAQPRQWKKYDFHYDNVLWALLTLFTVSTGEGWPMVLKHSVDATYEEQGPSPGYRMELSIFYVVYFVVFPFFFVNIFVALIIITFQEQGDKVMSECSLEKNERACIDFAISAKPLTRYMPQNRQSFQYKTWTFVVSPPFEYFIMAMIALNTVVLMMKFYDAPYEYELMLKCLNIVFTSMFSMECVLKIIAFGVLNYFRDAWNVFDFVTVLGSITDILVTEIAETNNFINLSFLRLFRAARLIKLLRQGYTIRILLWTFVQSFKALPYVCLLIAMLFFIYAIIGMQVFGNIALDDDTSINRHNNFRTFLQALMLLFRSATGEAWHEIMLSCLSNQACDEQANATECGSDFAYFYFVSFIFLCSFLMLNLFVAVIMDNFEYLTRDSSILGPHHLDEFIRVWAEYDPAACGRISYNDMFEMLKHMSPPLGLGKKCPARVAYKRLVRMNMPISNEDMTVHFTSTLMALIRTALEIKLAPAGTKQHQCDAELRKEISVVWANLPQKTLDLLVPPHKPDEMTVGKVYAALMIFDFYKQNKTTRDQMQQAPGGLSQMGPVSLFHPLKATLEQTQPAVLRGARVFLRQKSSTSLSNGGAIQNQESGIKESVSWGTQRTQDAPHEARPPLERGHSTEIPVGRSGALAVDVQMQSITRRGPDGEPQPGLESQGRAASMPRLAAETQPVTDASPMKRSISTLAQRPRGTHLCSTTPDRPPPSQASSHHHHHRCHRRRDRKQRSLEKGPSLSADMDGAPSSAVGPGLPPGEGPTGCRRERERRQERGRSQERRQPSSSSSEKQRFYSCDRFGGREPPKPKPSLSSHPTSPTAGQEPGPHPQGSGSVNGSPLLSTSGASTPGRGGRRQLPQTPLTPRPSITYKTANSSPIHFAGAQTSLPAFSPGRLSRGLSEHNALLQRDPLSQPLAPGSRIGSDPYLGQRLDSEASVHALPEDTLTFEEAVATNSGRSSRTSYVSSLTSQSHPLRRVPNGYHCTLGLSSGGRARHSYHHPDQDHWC
T3 sequence (P54289 25-956 partner limits assumed): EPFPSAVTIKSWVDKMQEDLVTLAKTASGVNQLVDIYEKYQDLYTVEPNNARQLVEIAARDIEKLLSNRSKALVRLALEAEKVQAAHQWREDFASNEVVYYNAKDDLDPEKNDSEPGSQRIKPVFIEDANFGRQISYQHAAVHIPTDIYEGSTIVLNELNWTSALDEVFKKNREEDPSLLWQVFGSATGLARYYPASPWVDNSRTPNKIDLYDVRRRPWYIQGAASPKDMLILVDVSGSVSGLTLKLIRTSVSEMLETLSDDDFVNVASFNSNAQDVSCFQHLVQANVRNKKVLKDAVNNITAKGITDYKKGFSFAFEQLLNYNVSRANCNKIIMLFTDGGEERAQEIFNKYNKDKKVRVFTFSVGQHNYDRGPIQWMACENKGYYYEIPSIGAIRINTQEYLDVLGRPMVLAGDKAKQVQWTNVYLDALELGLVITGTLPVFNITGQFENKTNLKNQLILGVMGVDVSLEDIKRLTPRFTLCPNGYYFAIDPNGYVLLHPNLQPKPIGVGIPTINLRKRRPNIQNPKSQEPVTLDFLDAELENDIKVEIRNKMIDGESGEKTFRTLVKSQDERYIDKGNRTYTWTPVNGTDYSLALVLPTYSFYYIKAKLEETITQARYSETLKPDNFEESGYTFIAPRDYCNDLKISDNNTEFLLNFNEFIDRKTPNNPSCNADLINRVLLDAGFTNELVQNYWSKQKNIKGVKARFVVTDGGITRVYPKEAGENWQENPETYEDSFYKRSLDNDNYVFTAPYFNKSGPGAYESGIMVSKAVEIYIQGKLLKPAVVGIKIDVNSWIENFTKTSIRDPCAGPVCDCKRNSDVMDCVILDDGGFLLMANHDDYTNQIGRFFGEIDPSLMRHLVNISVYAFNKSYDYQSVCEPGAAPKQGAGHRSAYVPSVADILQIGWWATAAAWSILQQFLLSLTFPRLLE
T3 sequence (P54289 957-1103 partner limits assumed): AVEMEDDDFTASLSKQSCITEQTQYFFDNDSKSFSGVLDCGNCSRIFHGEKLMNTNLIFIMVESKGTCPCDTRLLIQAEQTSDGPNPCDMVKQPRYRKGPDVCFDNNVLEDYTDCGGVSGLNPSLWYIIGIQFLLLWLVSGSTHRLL
T3 sequence (P54284 whole entry partner): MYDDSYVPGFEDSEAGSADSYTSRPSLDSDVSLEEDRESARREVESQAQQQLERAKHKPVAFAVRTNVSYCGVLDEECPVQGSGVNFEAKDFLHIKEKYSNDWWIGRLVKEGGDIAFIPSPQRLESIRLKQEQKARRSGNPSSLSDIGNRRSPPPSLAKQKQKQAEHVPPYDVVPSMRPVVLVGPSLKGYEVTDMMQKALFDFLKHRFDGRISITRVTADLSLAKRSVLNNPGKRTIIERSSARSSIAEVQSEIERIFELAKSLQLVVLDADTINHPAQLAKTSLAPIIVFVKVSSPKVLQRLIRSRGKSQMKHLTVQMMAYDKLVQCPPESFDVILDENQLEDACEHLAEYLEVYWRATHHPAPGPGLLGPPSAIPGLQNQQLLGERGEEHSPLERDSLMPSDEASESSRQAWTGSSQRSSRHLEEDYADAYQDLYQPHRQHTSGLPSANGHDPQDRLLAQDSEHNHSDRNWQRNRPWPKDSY

IC50 [1] [nM] | IC50 [2] [nM] | inhibition at 10 µM (Human Cav2.2 channels) [%] | inhibition at 30 µM (Human Cav2.2 channels) [%] | IC50 (Human Cav2.2 channels) [nM] | Structure (SMILES)
790 | 890 | 92 | 97 | 2210 | CC(C)(C)c1cc(N2CCN(C(=O)c3ccc(F)cc3)CC2)cc(C(C)(C)C)c1 [Compound 4, (4-(3,5-di-tert-butylphenyl)piperazin-1-yl)(4-fluorophenyl)methanone]
660 | 470 | 97 | 96 | 300 | CC(C)(C)C(=O)Nc1ccncc1C(=O)N1CCN(c2cc(C(C)(C)C)cc(C(C)(C)C)c2)CC1 [Compound 7, N-(3-(4-(3,5-di-tert-butylphenyl)piperazine-1-carbonyl)pyridin-4-yl)pivalamide]
710 | 550 | 94 | 95 | 650 | CC(C)(C)C(=O)Nc1ncccc1C(=O)N1CCN(c2cc(C(C)(C)C)cc(C(C)(C)C)c2)CC1 [Compound 8, N-(3-(4-(3,5-di-tert-butylphenyl)piperazine-1-carbonyl)pyridin-2-yl)pivalamide]
1310 | 1070 | 96 | 104 | 370 | Cc1cc(C(=O)N2CCN(c3cc(C(C)(C)C)cc(C(C)(C)C)c3)CC2)n(C(C)(C)C)n1 [Compound 10, (1-tert-butyl-3-methyl-1H-pyrazol-5-yl)(4-(3,5-di-tert-butylphenyl)piperazin-1-yl)methanone]
680 | 600 | 97 | 97 | 620 | CC(C)(C)c1cc(N2CCN(C(=O)COc3ccc(F)cc3)CC2)cc(C(C)(C)C)c1 [Compound 13, 1-(4-(3,5-di-tert-butylphenyl)piperazin-1-yl)-2-(4-fluorophenoxy)ethanone]
1110 | 1280 | 86 | 93 | 1370 | Cc1ccc(OCC(=O)N2CCN(c3cc(C(C)(C)C)cc(C(C)(C)C)c3)CC2)c(C)c1 [Compound 14, 1-(4-(3,5-di-tert-butylphenyl)piperazin-1-yl)-2-(2,4-dimethylphenoxy)ethanone]
690 | 680 | 96 | 90 | 1460 | CC(C)(C)c1cc(N2CCN(C(=O)c3ccc(F)c(C(F)(F)F)c3)CC2)cc(C(C)(C)C)c1 [Compound 16, (4-(3,5-di-tert-butylphenyl)piperazin-1-yl)(4-fluoro-3-(trifluoromethyl)phenyl)methanone]
70 | 50 | 99 | 103 | 990 | CC(C)(C)C(=O)Nc1cc(C(=O)N2CCN(c3cc(C(C)(C)C)cc(C(C)(C)C)c3)CC2)ccn1 [Compound 22, N-(4-(4-(3,5-di-tert-butylphenyl)piperazine-1-carbonyl)pyridin-2-yl)pivalamide]
– | – | 79 | 89 | – | CC(C)(C)c1cc(N2CCN(C(=O)c3nsc(Cl)c3Cl)CC2)cc(C(C)(C)C)c1 [Compound 46, (4-(3,5-di-tert-butylphenyl)piperazin-1-yl)(4,5-dichloroisothiazol-3-yl)methanone]
– | – | 20 | 26 | – | CC(C)(C)c1cc(N2CCN(C(=O)c3cc(-c4ccccc4)nc(-c4ccccc4)c3)CC2)cc(C(C)(C)C)c1 [Compound 50, (4-(3,5-di-tert-butylphenyl)piperazin-1-yl)(2,6-diphenylpyridin-4-yl)methanone]
– | – | 98 | 100 | – | CCOc1ccc(C(=O)N2CCN(c3cc(C(C)(C)C)cc(C(C)(C)C)c3)CC2)o1 [Compound 51, (4-(3,5-di-tert-butylphenyl)piperazin-1-yl)(5-ethoxyfuran-2-yl)methanone]
– | – | 75 | 88 | – | CCc1cc(C(=O)N2CCN(c3cc(C(C)(C)C)cc(C(C)(C)C)c3)CC2)sc1C [Compound 52, (4-(3,5-di-tert-butylphenyl)piperazin-1-yl)(4-ethyl-5-methylthiophen-2-yl)methanone]
